Strand notation (5' to 3'): a small letter for the sugar, then the base; units joined by * are phosphorothioate-linked, units joined directly phosphodiester-linked; [ ] holds rarer units or linkages, { } end groups; capitals alone tell only the bases. e = 2'-O-(2-methoxyethyl) (MOE); k = constrained ethyl (cEt); [5mC] = 5-methylcytosine; d = 2'-deoxy (DNA)
Test system: human PKK mRNA
Experiment: Antisense inhibition of human PKK mRNA in HepaRG cells, 1,000 nM, MOE/deoxy/cEt oligonucleotides (Example 3)
Type: cell-based
In short: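 HepaRG cells at 20,000 per well electroporated with 1,000 nM 16-mer MOE/cEt/deoxy gapmers (phosphorothioate, 5-methylcytosine). After about 24 h, PKK mRNA measured by qRT-PCR with primer probe set RTS3454, normalized to RIBOGREEN total RNA. Reported as percent inhibition versus untreated cells.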

[1] = HepaRG cells, electroporation with 1,000 nM antisense oligonucleotide, approximately 24 hours, primer probe set RTS3454, relative to untreated control cells, experiment of Table 23
[2] = Table 19, HepaRG cells, electroporation with 1,000 nM antisense oligonucleotide, approximately 24 hours, PKK mRNA by RT-PCR (RTS3454), relative to untreated control cells
[3] = HepaRG cells, 1,000 nM antisense oligonucleotide, Table 29
[4] = Table 20, HepaRG cells, electroporation with 1,000 nM antisense oligonucleotide, approximately 24 hours, PKK mRNA by RT-PCR (RTS3454), relative to untreated control cells
[5] = Table 22 experiment, HepaRG cells, electroporation with 1,000 nM antisense oligonucleotide, approx. 24 hours, PKK mRNA by RT-PCR (RTS3454), relative to untreated control cells
[6] = HepaRG cells, electroporation with 1,000 nM antisense oligonucleotide, approximately 24 hours, primer probe set RTS3454, relative to untreated control cells, experiment of Table 24
[7] = Table 28, HepaRG cells, 1,000 nM antisense oligonucleotide, human PKK mRNA
[8] = Table 30, human PKK mRNA, HepaRG cells, 1,000 nM antisense oligonucleotide
[9] = HepaRG cells, electroporation with 1,000 nM antisense oligonucleotide, approx. 24 hours, PKK mRNA by RT-PCR (RTS3454), relative to untreated control cells, Table 25 experiment
[10] = Table 27, HepaRG cells, 1,000 nM antisense oligonucleotide, human PKK mRNA
[11] = Table 21 experiment, HepaRG cells, electroporation with 1,000 nM antisense oligonucleotide, approx. 24 hours, PKK mRNA by RT-PCR (RTS3454), relative to untreated control cells
[12] = HepaRG cells, electroporation with 1,000 nM antisense oligonucleotide, approx. 24 hours, PKK mRNA by RT-PCR (RTS3454), relative to untreated control cells, Table 26 experiment

547981 (antisense eT*e[5mC]*kT*dT*dT*dG*dT*dG*d[5mC]*dA*dA*dG*dT*k[5mC]*kT*e[5mC]) [compound 547981]
% inhibition [1]: 76%

548074 (e[5mC]*e[5mC]*kT*dT*dT*d[5mC]*dT*d[5mC]*d[5mC]*dT*dT*d[5mC]*dG*kA*kG*eA; antisense) [compound 548074]
% inhibition [2]: 0%

548572 (eG*e[5mC]*kA*dT*dT*dA*d[5mC]*dT*d[5mC]*dA*dG*d[5mC]*dA*kT*kG*eT; antisense) [compound 548572]
% inhibition [3]: 63%

547867 (antisense e[5mC]*e[5mC]*kT*dT*dA*dG*dA*d[5mC]*dA*d[5mC]*dA*dT*dT*kA*kA*eA) [compound 547867]
% inhibition [4]: 34%
% inhibition [5]: 53%

548053 (eA*eT*kT*d[5mC]*dA*dA*dA*dG*dG*dA*dG*d[5mC]*d[5mC]*kT*kG*eG; antisense) [compound 548053]
% inhibition [6]: 36%

548501 (antisense e[5mC]*eA*kA*dG*d[5mC]*d[5mC]*dA*d[5mC]*dT*dA*dA*d[5mC]*d[5mC]*k[5mC]*kA*e[5mC]) [compound 548501]
% inhibition [7]: 33%

548612 (antisense eG*eG*k[5mC]*dG*dG*dG*dA*dT*d[5mC]*dG*dG*dT*dG*kG*kT*eG) [compound 548612]
% inhibition [3]: 20%

548124 (antisense eT*eA*kG*dA*d[5mC]*dT*d[5mC]*dT*dG*dG*dA*d[5mC]*dT*kG*k[5mC]*eT) [compound 548124]
% inhibition [2]: 51%

548447 (antisense e[5mC]*eA*k[5mC]*dT*dG*dT*d[5mC]*d[5mC]*dT*dA*dT*dG*dT*k[5mC]*kA*e[5mC]) [compound 548447]
% inhibition [8]: 59%

548183 (e[5mC]*eA*kG*dT*d[5mC]*dA*dT*dG*dG*dA*dG*dA*dT*k[5mC]*kT*e[5mC]; antisense) [compound 548183]
% inhibition [9]: 43%

548312 (eA*eT*kT*dT*dG*dG*d[5mC]*d[5mC]*d[5mC]*dT*dG*dA*dG*k[5mC]*k[5mC]*e[5mC]; antisense) [compound 548312]
% inhibition [10]: 0%

547819 (e[5mC]*eA*kT*dT*dG*dA*dT*dT*dG*dA*dA*d[5mC]*dT*kT*kG*e[5mC]; antisense) [compound 547819]
% inhibition [11]: 11%

548221 (eA*e[5mC]*kT*d[5mC]*d[5mC]*dA*dG*d[5mC]*dA*dG*dA*dA*dA*kT*k[5mC]*e[5mC]; antisense) [compound 548221]
% inhibition [9]: 49%

548648 (antisense e[5mC]*eA*kG*dT*dT*dG*dT*dA*dT*d[5mC]*d[5mC]*d[5mC]*dT*k[5mC]*k[5mC]*e[5mC]) [compound 548648]
% inhibition (PKK mRNA, HepaRG cells, 1,000 nM antisense oligonucleotide, Table 31): 32%

547895 (eA*eG*kG*d[5mC]*dA*dA*dT*dT*dG*dT*dT*d[5mC]*d[5mC]*kG*kG*eT; antisense) [compound 547895]
% inhibition [5]: 94%

548533 (antisense eG*eA*kG*dG*dT*dG*dG*dT*dT*dG*dG*dA*dG*k[5mC]*kT*eA) [compound 548533]
% inhibition [7]: 9%

548484 (e[5mC]*e[5mC]*k[5mC]*d[5mC]*dG*dG*dA*dG*d[5mC]*dA*d[5mC]*d[5mC]*dT*kT*k[5mC]*eA; antisense) [compound 548484]
% inhibition [7]: 41%

548027 (eG*eT*kG*dT*d[5mC]*d[5mC]*dT*dA*dT*dG*dA*dG*dT*kG*kA*e[5mC]; antisense) [compound 548027]
% inhibition [6]: 18%

547880 (eT*eT*k[5mC]*dA*dA*d[5mC]*dA*d[5mC]*dT*dG*d[5mC]*dT*dA*kA*k[5mC]*e[5mC]; antisense) [compound 547880]
% inhibition [4]: 69%
% inhibition [5]: 59%

548591 (eG*eT*kA*dA*dG*d[5mC]*d[5mC]*dT*dT*d[5mC]*dA*d[5mC]*dA*kG*kG*eG; antisense) [compound 548591]
% inhibition [3]: 3%

548485 (eG*eT*kG*dA*d[5mC]*d[5mC]*d[5mC]*dA*dA*dG*dG*dG*dT*k[5mC]*kG*eA; antisense) [compound 548485]
% inhibition [7]: 17%

547845 (antisense e[5mC]*eG*kA*dT*dG*dG*d[5mC]*dA*dA*dG*d[5mC]*dA*d[5mC]*kT*kT*eA) [compound 547845]
% inhibition [4]: 0%
% inhibition [5]: 64%

548560 (antisense e[5mC]*eA*k[5mC]*dT*dG*d[5mC]*d[5mC]*dT*dA*dG*dA*dA*dA*kG*kG*e[5mC]) [compound 548560]
% inhibition [3]: 16%

547902 (eA*e[5mC]*kT*dG*dT*dA*d[5mC]*dT*dT*dT*dA*dA*dT*kA*kG*eG; antisense) [compound 547902]
% inhibition [4]: 20%
% inhibition [5]: 33%

547969 (antisense eT*e[5mC]*k[5mC]*d[5mC]*dG*dG*dG*dT*dA*dA*dA*dT*dT*kT*kT*eA) [compound 547969]
% inhibition [1]: 0%

547833 (eA*eA*k[5mC]*dT*dG*d[5mC]*dA*d[5mC]*d[5mC]*dT*dG*dT*dT*k[5mC]*kG*eA; antisense) [compound 547833]
% inhibition [11]: 40%

548605 (eT*eG*kG*d[5mC]*dG*dG*dG*dA*dT*dT*dG*dG*dT*kG*kG*eT; antisense) [compound 548605]
% inhibition [3]: 12%

548259 (antisense eG*eT*kG*dA*dT*dG*dA*dA*dA*dG*dT*dA*d[5mC]*kA*kG*e[5mC]) [compound 548259]
% inhibition [12]: 45%

548436 (antisense eA*eT*kA*dT*d[5mC]*dA*d[5mC]*dT*dG*dT*dA*d[5mC]*d[5mC]*kT*kG*eT) [compound 548436]
% inhibition [8]: 8%

548082 (eA*eA*kG*d[5mC]*dA*dT*d[5mC]*dT*dT*dT*dT*d[5mC]*d[5mC]*k[5mC]*k[5mC]*e[5mC]; antisense) [compound 548082]
% inhibition [2]: 42%

548423 (antisense eA*eG*kT*dA*dT*d[5mC]*dA*d[5mC]*dT*dG*dT*d[5mC]*d[5mC]*kT*kA*eT) [compound 548423]
% inhibition [8]: 72%

548110 (antisense eT*eG*k[5mC]*dA*dT*d[5mC]*dT*dG*dA*dG*d[5mC]*dT*dT*kT*kT*e[5mC]) [compound 548110]
% inhibition [2]: 62%

547953 (e[5mC]*eT*kA*dT*dA*dT*d[5mC]*d[5mC]*dA*dG*dA*dT*dA*kT*kG*eG; antisense) [compound 547953]
% inhibition [1]: 16%

548417 (antisense eA*e[5mC]*kT*dG*dT*d[5mC]*d[5mC]*dT*dA*dT*dA*dA*d[5mC]*kT*k[5mC]*eT) [compound 548417]
% inhibition [8]: 24%

547949 (eG*eT*kG*dT*dT*dT*dT*d[5mC]*dT*dT*dG*dA*dG*kG*kA*eG; antisense) [compound 547949]
% inhibition [1]: 6%

547871 (antisense eG*e[5mC]*kT*dA*dA*d[5mC]*d[5mC]*dT*dT*dA*dG*dA*d[5mC]*kA*k[5mC]*eA) [compound 547871]
% inhibition [4]: 96%
% inhibition [5]: 77%

548185 (eA*eA*k[5mC]*dA*d[5mC]*dA*d[5mC]*dA*dG*dT*d[5mC]*dA*dT*kG*kG*eA; antisense) [compound 548185]
% inhibition [9]: 23%

548283 (antisense eG*eG*k[5mC]*dT*dT*dA*dT*dG*d[5mC]*dT*d[5mC]*d[5mC]*dT*kT*k[5mC]*eT) [compound 548283]
% inhibition [12]: 56%

547787 (antisense eA*eA*kG*dT*dT*dG*d[5mC]*dT*dT*dG*d[5mC]*dT*dT*kG*kA*eA) [compound 547787]
% inhibition [11]: 22%

548297 (eA*e[5mC]*kT*d[5mC]*dT*d[5mC]*dA*dA*dG*d[5mC]*dT*d[5mC]*d[5mC]*kA*k[5mC]*eG; antisense) [compound 548297]
% inhibition [12]: 32%

548092 (antisense eT*eT*kG*d[5mC]*dA*dA*dA*d[5mC]*dT*dA*dA*dG*dG*kG*kA*e[5mC]) [compound 548092]
% inhibition [2]: 30%

548355 (antisense eG*e[5mC]*kA*dT*d[5mC]*d[5mC]*dT*d[5mC]*d[5mC]*d[5mC]*dT*dA*dG*kT*kT*eG) [compound 548355]
% inhibition [10]: 47%

548507 (antisense eA*eA*kA*d[5mC]*dT*d[5mC]*d[5mC]*dT*d[5mC]*dT*d[5mC]*dA*dA*kG*kG*e[5mC]) [compound 548507]
% inhibition [7]: 53%
